Assay results as given in patent US8192962B2, “Processes for detecting toxic substances” (Daikin Industries, Ltd., priority 2001, dated 2012).

System: Metabolism protein genes
Assay: DNA chip mRNA expression in yeast, metabolism protein genes (Table 7)
Format: cell-based, Saccharomyces cerevisiae S288C
Method: Yeast (Saccharomyces cerevisiae S288C (α SUC2mal mel gap2 CUP1)) were incubated at 25° C. on YPD medium (yeast extract 1%, polypepton 2%, glucose 2%). One of toxic chemical substances was added to the cells at logarithmic growth phase, and the cells were further incubated for two hours. Cells were cultured without any chemical substance in the same condition, and were used as control. Concentrations of the chemical substances were defined to inhibit the growth of the yeast but not lead to death.
After completion of the incubation, the culture was centrifuged to collect the cells. To the cells, sodium acetate buffer (50 mM sodium acetate, 10 mM EDTA, 1% SDS) was added, and the mixture was shaken at 65° C. for five minutes, followed by returning to room temperature, and obtaining the supernatant, of which the procedures were repeated two times. To the supernatant, ½ amount of a solution of phenol/chloroform was added, and the mixture was centrifuged to give a supernatant, which was added with an equal amount of chloroform, and the mixture was centrifuged to give a supernatant. To the supernatant, an equal amount of isopropanol containing 0.3 M sodium acetate was added, and the mixture was allowed to stand at room temperature for 30 minutes, after which the mixture was centrifuged to give a sediment of the whole RNAs. Seventy % ethanol was added to the sediment, and the mixture was again centrifuged to give a sediment, which was then dried and dissolved in water. mRNA was isolated from the whole RNAs as followings. In view of the fact that a poly A chain is attached to the 3′ terminus of mRNA, a polynucleotide having a poly T structure which was immobilized on the surface of latex beads was used to trap the mRNA, and then the mRNA was washed and eluted with spine column (Oligotex-dT30<Super>mRNA Purification Kit, Takara). Reverse transcription of the mRNA was conducted with a reverse transcriptase (Super Script II Reverse Transcriptase; catalogue No. 18064-014, GibcoBRL) using fluorescence-labeled nucleotides to give cDNAs that were introduced with Cy3-dUTP or Cy5-dUTP during the reverse transcription.
The labeled cDNAs were dissolved in TE buffer (10mM Tris-HCl/1 mM EDTA, pH8.0), and the solution was dropped on the DNA chip containing the whole genes of yeast (DNA Chip Research Inc. Japan) so that the cDNAs were hybridized on the DNA chip at 65° C. for over 12 hours. The fluoresces intensity of the DNA chip was read with a scanner, and the ratio relative to the fluorescence intensity resulting from the absence of chemical substance was estimated as the following, which is shown in Tables 1 to 9: […]

manganese ethylenebis(dithiocarbamate) [(8)]
0.9: level of expressed mRNA in the presence/in the absence of chemical substance (yeast gene YBR003W) | level of expressed mRNA in the presence/in the absence of chemical substance (yeast gene YCR034W) | level of expressed mRNA in the presence/in the absence of chemical substance (yeast gene YDR178W) | level of expressed mRNA in the presence/in the absence of chemical substance (yeast gene YDR284C) | The level of expressed mRNA in the presence of chemical substance/The level of expressed mRNA in the absence of chemical substance (yeast gene YDR502C)
1.6: The level of expressed mRNA in the presence of chemical substance/The level of expressed mRNA in the absence of chemical substance (yeast gene YFL030W) | The level of expressed mRNA in the presence of chemical substance/The level of expressed mRNA in the absence of chemical substance (yeast gene YJR137C)
2.2: The level of expressed mRNA in the presence of chemical substance/The level of expressed mRNA in the absence of chemical substance (yeast gene YGR256W)
0.2: The level of expressed mRNA in the presence of chemical substance/The level of expressed mRNA in the absence of chemical substance (yeast gene YDR380W)
1.7: level of expressed mRNA in the presence/in the absence of chemical substance (yeast gene YDR277C) | The level of expressed mRNA in the presence of chemical substance/The level of expressed mRNA in the absence of chemical substance (yeast gene YIR034C)
18.5: The level of expressed mRNA in the presence of chemical substance/The level of expressed mRNA in the absence of chemical substance (yeast gene YFL056C)
18.0: The level of expressed mRNA in the presence of chemical substance/The level of expressed mRNA in the absence of chemical substance (yeast gene YFL057C)
2.3: The level of expressed mRNA in the presence of chemical substance/The level of expressed mRNA in the absence of chemical substance (yeast gene YBR256C)
0.5: The level of expressed mRNA in the presence of chemical substance/The level of expressed mRNA in the absence of chemical substance (yeast gene YBR023C)
2.4: The level of expressed mRNA in the presence of chemical substance/The level of expressed mRNA in the absence of chemical substance (yeast gene YCL064C)
0.7: The level of expressed mRNA in the presence of chemical substance/The level of expressed mRNA in the absence of chemical substance (yeast gene YAL012W) | The level of expressed mRNA in the presence of chemical substance/The level of expressed mRNA in the absence of chemical substance (yeast gene YBR029C) | The level of expressed mRNA in the presence of chemical substance/The level of expressed mRNA in the absence of chemical substance (yeast gene YDR019C) | level of expressed mRNA in the presence/in the absence of chemical substance (yeast gene YDR408C) | The level of expressed mRNA in the presence of chemical substance/The level of expressed mRNA in the absence of chemical substance (yeast gene YFL031W) | The level of expressed mRNA in the presence of chemical substance/The level of expressed mRNA in the absence of chemical substance (yeast gene YGL126W) | level of expressed mRNA in the presence/in the absence of chemical substance (yeast gene YGR191W) | The level of expressed mRNA in the presence of chemical substance/The level of expressed mRNA in the absence of chemical substance (yeast gene YJL172W) | level of expressed mRNA in the presence/in the absence of chemical substance (yeast gene YJR143C)
1.4: level of expressed mRNA in the presence/in the absence of chemical substance (yeast gene YDR400W) | The level of expressed mRNA in the presence of chemical substance/The level of expressed mRNA in the absence of chemical substance (yeast gene YGR037C)
0.4: The level of expressed mRNA in the presence of chemical substance/The level of expressed mRNA in the absence of chemical substance (yeast gene YGL022W) | level of expressed mRNA in the presence/in the absence of chemical substance (yeast gene YGR204W) | The level of expressed mRNA in the presence of chemical substance/The level of expressed mRNA in the absence of chemical substance (yeast gene YHR137W)
1.5: The level of expressed mRNA in the presence of chemical substance/The level of expressed mRNA in the absence of chemical substance (yeast gene YER069W) | level of expressed mRNA in the presence/in the absence of chemical substance (yeast gene YJL167W) | The level of expressed mRNA in the presence of chemical substance/The level of expressed mRNA in the absence of chemical substance (yeast gene YJL219W)
1.3: level of expressed mRNA in the presence/in the absence of chemical substance (yeast gene YBR011C) | level of expressed mRNA in the presence/in the absence of chemical substance (yeast gene YDR050C) | level of expressed mRNA in the presence/in the absence of chemical substance (yeast gene YDR073W) | level of expressed mRNA in the presence/in the absence of chemical substance (yeast gene YDR123C) | The level of expressed mRNA in the presence of chemical substance/The level of expressed mRNA in the absence of chemical substance (yeast gene YDR516C) | The level of expressed mRNA in the presence of chemical substance/The level of expressed mRNA in the absence of chemical substance (yeast gene YER053C) | The level of expressed mRNA in the presence of chemical substance/The level of expressed mRNA in the absence of chemical substance (yeast gene YHR111W) | The level of expressed mRNA in the presence of chemical substance/The level of expressed mRNA in the absence of chemical substance (yeast gene YHR176W) | level of expressed mRNA in the presence/in the absence of chemical substance (yeast gene YHR210C) | The level of expressed mRNA in the presence of chemical substance/The level of expressed mRNA in the absence of chemical substance (yeast gene YIL107C) | The level of expressed mRNA in the presence of chemical substance/The level of expressed mRNA in the absence of chemical substance (yeast gene YJL088W)
1.9: level of expressed mRNA in the presence/in the absence of chemical substance (yeast gene YJL216C)
1.2: level of expressed mRNA in the presence/in the absence of chemical substance (yeast gene YDR345C) | level of expressed mRNA in the presence/in the absence of chemical substance (yeast gene YGL205W) | The level of expressed mRNA in the presence of chemical substance/The level of expressed mRNA in the absence of chemical substance (yeast gene YGR194C) | The level of expressed mRNA in the presence of chemical substance/The level of expressed mRNA in the absence of chemical substance (yeast gene YHR174W)
0.8: level of expressed mRNA in the presence/in the absence of chemical substance (yeast gene YCR010C) | The level of expressed mRNA in the presence of chemical substance/The level of expressed mRNA in the absence of chemical substance (yeast gene YCR048W) | The level of expressed mRNA in the presence of chemical substance/The level of expressed mRNA in the absence of chemical substance (yeast gene YER026C) | The level of expressed mRNA in the presence of chemical substance/The level of expressed mRNA in the absence of chemical substance (yeast gene YER178W) | level of expressed mRNA in the presence/in the absence of chemical substance (yeast gene YFL011W) | level of expressed mRNA in the presence/in the absence of chemical substance (yeast gene YGL012W) | The level of expressed mRNA in the presence of chemical substance/The level of expressed mRNA in the absence of chemical substance (yeast gene YGL248W) | level of expressed mRNA in the presence/in the absence of chemical substance (yeast gene YHR025W) | level of expressed mRNA in the presence/in the absence of chemical substance (yeast gene YHR123W) | level of expressed mRNA in the presence/in the absence of chemical substance (yeast gene YJR077C)
1.8: The level of expressed mRNA in the presence of chemical substance/The level of expressed mRNA in the absence of chemical substance (yeast gene YJL031C)
3.4: The level of expressed mRNA in the presence of chemical substance/The level of expressed mRNA in the absence of chemical substance (yeast gene YFL014W)
1.0: level of expressed mRNA in the presence/in the absence of chemical substance (yeast gene YBR020W) | The level of expressed mRNA in the presence of chemical substance/The level of expressed mRNA in the absence of chemical substance (yeast gene YBR183W) | The level of expressed mRNA in the presence of chemical substance/The level of expressed mRNA in the absence of chemical substance (yeast gene YCR098C) | level of expressed mRNA in the presence/in the absence of chemical substance (yeast gene YDR483W) | The level of expressed mRNA in the presence of chemical substance/The level of expressed mRNA in the absence of chemical substance (yeast gene YER096W) | The level of expressed mRNA in the presence of chemical substance/The level of expressed mRNA in the absence of chemical substance (yeast gene YFR047C) | level of expressed mRNA in the presence/in the absence of chemical substance (yeast gene YGL115W) | level of expressed mRNA in the presence/in the absence of chemical substance (yeast gene YGR096W) | The level of expressed mRNA in the presence of chemical substance/The level of expressed mRNA in the absence of chemical substance (yeast gene YGR282C) | level of expressed mRNA in the presence/in the absence of chemical substance (yeast gene YGR288W) | The level of expressed mRNA in the presence of chemical substance/The level of expressed mRNA in the absence of chemical substance (yeast gene YIL155C) | The level of expressed mRNA in the presence of chemical substance/The level of expressed mRNA in the absence of chemical substance (yeast gene YIR036C) | The level of expressed mRNA in the presence of chemical substance/The level of expressed mRNA in the absence of chemical substance (yeast gene YJL099W) | level of expressed mRNA in the presence/in the absence of chemical substance (yeast gene YJL121C)
1.1: The level of expressed mRNA in the presence of chemical substance/The level of expressed mRNA in the absence of chemical substance (yeast gene YAL038W) | The level of expressed mRNA in the presence of chemical substance/The level of expressed mRNA in the absence of chemical substance (yeast gene YCL009C) | level of expressed mRNA in the presence/in the absence of chemical substance (yeast gene YER015W) | The level of expressed mRNA in the presence of chemical substance/The level of expressed mRNA in the absence of chemical substance (yeast gene YGL209W) | The level of expressed mRNA in the presence of chemical substance/The level of expressed mRNA in the absence of chemical substance (yeast gene YGR055W) | The level of expressed mRNA in the presence of chemical substance/The level of expressed mRNA in the absence of chemical substance (yeast gene YIL045W) | The level of expressed mRNA in the presence of chemical substance/The level of expressed mRNA in the absence of chemical substance (yeast gene YJL068C)
0.6: The level of expressed mRNA in the presence of chemical substance/The level of expressed mRNA in the absence of chemical substance (yeast gene YBR222C) | The level of expressed mRNA in the presence of chemical substance/The level of expressed mRNA in the absence of chemical substance (yeast gene YDR497C) | level of expressed mRNA in the presence/in the absence of chemical substance (yeast gene YEL063C) | level of expressed mRNA in the presence/in the absence of chemical substance (yeast gene YER081W) | level of expressed mRNA in the presence/in the absence of chemical substance (yeast gene YER120W) | level of expressed mRNA in the presence/in the absence of chemical substance (yeast gene YIL006W) | The level of expressed mRNA in the presence of chemical substance/The level of expressed mRNA in the absence of chemical substance (yeast gene YIL154C) | The level of expressed mRNA in the presence of chemical substance/The level of expressed mRNA in the absence of chemical substance (yeast gene YJR148W)
